Assay results reported in US10913224B2, “Ophthalmic devices for delivery of hydrophobic comfort agents” (Novartis AG, priority 2008, dated 2021).
Values joined by “and” are separate entries in the source; they are usually repeats but may differ in a detail not shown here. Identical values can stand only once.

How the values were obtained:
Type in all cases: physicochemical
[1] = Control lenses: DMPC loading of Example 3 lenses (enzymatic assay); details: control lenses of Example 3, no release test, n=5
Description: Lenses are demolded and extracted with an organic solvent (e.g., isopropanol, 1-propanol, Dowanol, methyl ethyl ketone (MEK), or the like) and then dipped in a Dowanol PM (or alternatively MEK or 1-propanol) solution of polyacrylic acid (0.1% by weight, pH ˜2.0). The lenses are then rinsed for 60 seconds in water and then dipped in a Dowanol (or alternatively MEK or 1-propanol) solution of 1,2-dimyristoyl-sn-glycero-3-phosphocholine (DMPC, 1%) for about 60 to about 100 seconds. The lenses are then rinsed in water for 120 seconds and packaged in PBS. Lenses are then autoclaved for 30 min at 121° C. The second test is designed to try to maximize the amount of DM PC in ATF by leaving the lens in ATF for the entire release test. A single lens is placed in 1 mL ATF and incubated at 35° C. for 8 hrs. Every 30 min, the sample is vortexed and then returned to the incubator. At the conclusion of 8 hrs, the lens is removed from the ATF and the ATF is submitted for analysis. All analysis is done using an enzymatic assay method. A control set of lenses is submitted to confirm loading of the lenses with DMPC. This control sample set (n=5) show an average loading of 200 μg DMPC per lens.

[2] = First release test: lens in artificial tear fluid (ATF) refreshed every 30 min, DMPC left in lens; details: first test: 500 μL ATF replaced every 30 min, 35° C., 8 hrs, n=5
Protocol: Lenses (as prepared in Example 3) are subjected to one of two release tests in artificial tear fluid (ATF) prepared without any phospholipids and having a composition shown in Table 1. The first test is designed to maximize release of DMPC from the lens by refreshing the ATF frequently. A single lens is placed in 500 μL of ATF and incubated at 35° C. for 8 hrs. Every 30 min, the sample is vortexed, the ATF is withdrawn, a fresh 500 μL aliquot of ATF is added to the lens, the sample is again vortexed, and the sample is returned to the incubator. At the conclusion of 8 hrs, the lenses are removed from ATF, placed in 1 mL clean PBS, and submitted for analysis of DMPC content. The second test is designed to try to maximize the amount of DM PC in ATF by leaving the lens in ATF for the entire release test. A single lens is placed in 1 mL ATF and incubated at 35° C. for 8 hrs. Every 30 min, the sample is vortexed and then returned to the incubator. At the conclusion of 8 hrs, the lens is removed from the ATF and the ATF is submitted for analysis. All analysis is done using an enzymatic assay method.

[3] = Second release test: lens left in ATF for 8 hrs, DMPC in ATF; details: second test: 1 mL ATF, 35° C., 3 pooled ATF samples, just below dynamic range of the assay
Protocol: Lenses (as prepared in Example 3) are subjected to one of two release tests in artificial tear fluid (ATF) prepared without any phospholipids and having a composition shown in Table 1. The second test is designed to try to maximize the amount of DM PC in ATF by leaving the lens in ATF for the entire release test. A single lens is placed in 1 mL ATF and incubated at 35° C. for 8 hrs. Every 30 min, the sample is vortexed and then returned to the incubator. At the conclusion of 8 hrs, the lens is removed from the ATF and the ATF is submitted for analysis. All analysis is done using an enzymatic assay method. Three ATF samples are pooled to increase the DMPC signal. […] The value for the 3 pooled samples is just below the dynamic range of the assay, making confidence in the quantified DMPC levels difficult yet still providing evidence of DMPC release from the lenses.

[4] = Total content of radio-labeled DMPC in lenses (extraction, scintillation counting); details: radio labeled DMPC (C14) loaded from 1-propanol
Protocol: (§1) Lenses are prepared according to the procedures described in Example 3, except that DMPC used in this example is a radio labeled DMPC (C14). The radio labeled DMPC is supplied by New England Nuclear (Waltham, Mass.). Lenses are loaded with radio-labeled DMPC by dipping the lenses into a solution of the radio-labeled DMPC in 1-propanol. Loaded lenses are then subjected to release testing using artificial tear fluid (ATF) as the release media. Components listed in Table 2 are dissolved in a phosphate buffered saline solution to provide a physiologically acceptable pH and osmolality.
The DMPC content of the lenses is also measured using one of two techniques: • (1) Lenses that had previously been subjected to release testing are fully extracted and the eluate is then analyzed for DMPC content. This amount of DMPC is numerically added to the DMPC already quantified in the release media. Thus, all DMPC is accounted for, cradle-to-grave. • (2) Other lenses, not subject to release testing, are also extracted to determine initial DMPC content (total loading of DM PC in lenses).

[5] = Release of radio-labeled DMPC from lens into ATF over 24 hours (scintillation counter); details: 1 mL ATF, radio labeled DMPC (C14)
Protocol: as §1
Release tests are conducted by placing a single lens in 1 mL of ATF and then incubating the sample for 24 hours. At specified time points of 0, 2, 4, 10, and 24 hours, small samples of release media are pulled and analyzed for DM PC content using a scintillation counter (C14 emits a weak beta particle).

[6] = Comfort agent content of Example 6 lenses (exhaustive isopropanol extraction); details: comfort agent added to lens formulation, after autoclave
Protocol: A lens formulation is prepared as detailed in Example 3 where 1,2-dimyristoyl-sn-glycero-3-phosphocholine (DMPC) is added to the formulation at a concentration of 0.75% by weight and where the formulation solvent, 1-propanol, is reduced to 22.65% by weight. Lens curing is as described in Example 3. The lenses are demolded and then extracted in methyl ethyl ketone followed by a rinse in DI water for 56 seconds. The lenses are then dipped in a solution of polyacrylic acid (0.36% wt/vol in 1-propanol, pH-2). The lenses are then rinsed in water for 120 seconds and packaged in phosphate buffered saline. Lenses are then autoclaved for 30 minutes at 121° C. The content of comfort agents, DMPC and L-PEG, are determined as follows. Lenses are exhaustively extracted in isopropanol and the extract is tested for DMPC and N-(carbonyl-methoxypolyethylene glycol-2000)-1,2-disteaoyl-sn-glycero-3-phosphoethanolamine, sodium salt (L-PEG-2000) content. Lenses contain on average 30 μg DMPC and 10 μg L-PEG-2000 per lens.

[7] = Release of DMPC from pooled Example 6 lenses into ATF, 24 hours, HPLC; details: pooled lenses (35 lenses in 3.5 mL ATF and 50 lenses in 5 mL ATF), 37° C.
Protocol: The release profile of contact lenses with comfort agents (DMPC and L-PEG) are determined as follows. Lenses are placed in release media (artificial tear fluid (ATF) as described in Example 4) for release testing. Lenses are pooled (35 lenses in 3.5 mL ATF and 50 lenses in 5 mL ATF) and then gently agitated at 37° C. for 24 hours. At the conclusion of the 24-hour release study, the lenses are removed from the ATF. The remaining ATF is then transferred to centrifuge tubes and dried overnight under vacuum in a centrifugal evaporator.
The dried residue from the ATF is then resuspended in 1-propanol (1 mL 1-propanol for each original 5 mL ATF) using sonication to assist in resuspension. The resulting solution is analyzed for presence of DMPC using HPLC.

average loading of DMPC per lens [1] [μg DMPC per lens] | average DMPC content of lens after release [2] [μg DMPC per lens] | DMPC in the ATF equivalent per lens [3] [μg DM PC per lens] | total DMPC content of the lenses [4] | average cumulative DMPC release from the lens ([5]; 24-hour test period, eight samples) [µg] | Molecule | DMPC release order ([5]; 0-24 hours) | average content per lens [6] [μg per lens] | DMPC in ATF after release [7]
200 | 177 | 6 | 32.1±2.7 micrograms of DMPC per lens | 1.3 | CCCCCCCCCCCCCC(=O)OC[C@H](COP(=O)([O-])OCC[N+](C)(C)C)OC(=O)CCCCCCCCCCCCC [DMPC, 1,2-dimyristoyl-sn-glycero-3-phosphocholine] | first order | 30 | 0.48 μg per mL ATF and 0.69 μg per mL ATF
 |  |  |  |  | N-(carbonyl-methoxypolyethylene glycol-2000)-1,2-distearoyl-sn-glycero-3-phosphoethanolamine sodium salt [L-PEG-2000] |  | 10 | 
